Entries after “also recorded” stand apart in the source; their conditions may differ.

The subject of series [1] is Aβ oligomer-treated mice. Put plainly: Morris water maze test (spatial cognition). The series is classed as in vivo, ICR mice. Particulars: acyclovir 500 mg/kg, DXMT 2 mg/kg, donepezil 2.5 mg/kg; for time in the target area compared with the Aβ group: probe trial, platform removed, 90 sec. As to the method:
(§1) The acyclovir, DXMT and donepezil were dissolved in water.
(§2) Mice recover for 3 d without any experiments.
The spatial memory is assessed with the Morris water maze test^10. The Morris water maze is a circular pool (110 cm in diameter) filled with water at a temperature of 23±2° C., and has a platform. Except on a last day, the platform is always placed in a center of a northwest quadrant. Swimming tracks are recorded by a video recorder connected to a computer. Each mouse is trained on positioning the platform over a four-day trial, and learning is assessed daily for four consecutive days. The time mice take to enter a hidden platform is measured. On the last day, the platform is removed and the mice are trained to swim for 90 sec for a probe trial. The swimming times are recorded in the four quadrants of the pool. A tendency to appear in the quadrant occupied before the platform indicates a spatial memory ability.

The subject of series [2] is Aβ oligomer-treated mice. Put plainly: Open field experiment (motor activity). Particulars: day 17, 5 min, acyclovir 500 mg/kg, DXMT 2 mg/kg.
Procedure: Zhejiang Academy of Medical Sciences has provided ICR mice weighing about 25 g. The mice are subjected to a 12-h illumination/darkness cycle at 22±2° C. (humidity: 50±10%) and are provided with water and standard food. The acyclovir, DXMT and donepezil were dissolved in water. The mice are randomly divided into 6 groups with 10 mice in each group, including: a control group, an Aβ oligomer group, an Aβ+500 mg/kg acyclovir group, an Aβ+2 mg/kg DXMT group, an Aβ+500 mg/kg acyclovir, 2 mg/kg DXMT group, and an Aβ+2.5 mg/kg donepezil group. The mice are anesthetized by intraperitoneal injection of sodium pentobarbital (50 mg/kg) and placed in a stereotaxic apparatus (RWD Life Science Co., Ltd., Shenzhen, China).
On day 1, the Aβ oligomer was injected into a bilateral ventricle region. A micro-dose is injected (1 μl/side) over 5 min. To reduce backflow, the cannula is left in place for 5 min. […] Mice recover for 3 d without any experiments. […]
To analyze a motor activity and exploratory behavior, the mice are housed in an open field (50 cm×50 cm×39 cm) with white plywood walls and brown floors. […] The number of crossed lines of four paws and the number of feedings are recorded using a hand-held counter and stopwatch, which are used to mark the motor activity and exploratory behavior. […]
In a further series the test system is PSD-95. Description: Western blotting of PSD-95 in mouse hippocampus. The series is classed as in vivo, ICR mice. Particulars: acyclovir 500 mg/kg, DXMT 2 mg/kg, donepezil 2.5 mg/kg. Here is the method: as §1, §2
(§3) One day after the Morris water maze test, mice are deeply anesthetized and transcardially perfused with an ice-cold saline. The brain is quickly dissected. Hippocampal proteins are extracted and stored at −80° C. prior to use in a Western blotting assay (4 mice per group) and an enzyme-linked immunosorbent assay (ELISA, 3 mice per group). Intact brain tissues (3 mice per group) are stored in a formalin solution at […] prior to staining using immunohistochemistry (IHC).
(§4) The Western blotting assay is conducted as previously described^11. Briefly, the brain tissues from hippocampus are extracted in a lysis buffer for 1 min and centrifuged at 16,000 g for 10 min. Protein levels in a supernatant are estimated by a Bradford analysis, the proteins are separated on an SDS-polyacrylamide gel, and electrotransferred to a polyvinylidene fluoride membrane. After 2 h of incubation with 5% skim milk in TBST, incubation is conducted for 12 h with corresponding antibodies Tau, IL-17 (Santa Cruz Biotechnology, Shanghai, China), pSer396-Tau, PSD-95, and β-actin (Cell Signaling Technology, Inc., Beverly, Mass., USA). […] The data is expressed as a ratio of an optical density (OD) compared to the control and a statistical analysis.
(Immunoblotting shows a protein as a band on a membrane.)

The subject of a further series is CD45. Description: IHC staining of CD45 (microglia activation) in hippocampus. Format: in vivo, ICR mice. Particulars: acyclovir 500 mg/kg, DXMT 2 mg/kg. As to the method: as §1, §2, §3
(§5) IHC staining is conducted according to previously reported protocols^11. Briefly, after the Morris water maze test, the brains are dissected and incubated with 4% paraformaldehyde for 1 d. Brain specimens are dehydrated, paraffin-embedded, and sliced into 4-micron slices. Hippocampal sections are dewaxed and rehydrated. Treatment with 3% H2O2 is conducted for 10 min to inhibit a cellular peroxidase activity. Sections are incubated overnight at 4° C. with primary antibodies to a CD45 antigen and a glial fibrillary acidic protein (GFAP). […] The sections are labeled with DAB and analyzed colorimetrically. A mean OD of the area is analyzed using Image Pro 6.0 (Media Cybernetics Inc., MD, USA). […] Positive area and OD are determined by measurements on randomly selected microscope fields on each slide. […]

The subject of another series is pSer396-Tau. Description: Western blotting of pTau in mouse hippocampus. The series is classed as in vivo, ICR mice. Particulars: acyclovir 500 mg/kg, DXMT 2 mg/kg. As to the method:
as §1, §2, §3, §4

A further series concerns interleukin-6 (IL-6). Put plainly: ELISA of IL-6 in mouse hippocampus. Format: in vivo, ICR mice. Particulars: acyclovir 500 mg/kg, DXMT 2 mg/kg, donepezil 2.5 mg/kg. As to the method:
as §1, §2, §3
Determination was conducted on concentrations of interleukin-6 (IL-6) and tumor necrosis factor-α (TNF-α) in mouse hippocampus using freshly prepared brain tissues. Brain samples are homogenized in a 0.1M phosphate buffered saline. A resulting brain extract is centrifuged to 2,000 g at 4° C. for 15 min. Concentrations of IL-6 and TNF-α are determined with an ELISA kit (Excell Bio, Shanghai, China) according to the manufacturer's protocol. An absorbance is read.

Series [3] deals with glial fibrillary acidic protein (GFAP). Description: IHC staining of GFAP (astrocyte activation) in hippocampus. Format: in vivo, ICR mice. Particulars: acyclovir 500 mg/kg, DXMT 2 mg/kg, donepezil 2.5 mg/kg. Here is the method:
as §1, §2, §3, §5

A further series concerns IL-17. Put plainly: Western blotting of IL-17 in mouse hippocampus. The series is classed as in vivo, ICR mice. Particulars: acyclovir 500 mg/kg, DXMT 2 mg/kg, donepezil 2.5 mg/kg. As to the method: as §1, §2, §3, §4
The next series deals with HSV-1-infected cells. Particulars: cited from earlier work.
A short description of series [4]: Body weight of Aβ oligomer-treated mice during treatment. Format: in vivo, ICR mice. Particulars: last day of experiment, gavage 13 d twice a day, acyclovir 500 mg/kg, DXMT 2 mg/kg, donepezil 2.5 mg/kg. Here is the method:
as §1, §2
Briefly, on day 1, the Aβ oligomers are injected into both sides of the mouse hippocampus. The mice are let recover for 3 d. On days 4 to 16, mice are treated differently for 13 d. On day 17, a motor function of the mice is examined by the open field test. On days 18-24, the spatial cognition is tested by the Morris water maze test. On day 25, the mice are sacrificed for biochemical studies.
Digestive disturbance is one of the common adverse effects of acyclovir. Long-term treatment with acyclovir may cause indigestion and malnutrition, leading to weight loss. Therefore, the body weight of the mice is measured every 2 d to 3 d during the experiment.

With `Nc1nc2c(ncn2COCCO)c(=O)[nH]1` [acyclovir], the “time in the target area compared with the Aβ group” value in the series on Aβ oligomer-treated mice [1] is “do not show a better performance”. Also, the “motor function (number of standing, number of crossing lines)” value in the series on Aβ oligomer-treated mice [2] is given as “do not significantly alter the motor function”. Further, the “expression of PSD-95 compared with the Aβ group” value in the series on PSD-95 is “does not alter the expression of PSD-95”. The “Aβ-induced increase in CD45 mean OD compared with the Aβ group” value in the series with CD45 is recorded as “can inhibit the activation of microglia”. In the series with pSer396-Tau, the “Aβ-induced increase in pTau expression compared with the Aβ group” value is on record as “significantly attenuate”. In addition, the “Aβ-induced increase in IL-6 expression compared with the Aβ group” value in the series with interleukin-6 (IL-6) is recorded as “does not significantly reduce IL-6 production”. The “Aβ-induced increase in the mean OD of GFAP compared with the Aβ group” value in series [3] is “significantly reduce; also recorded: neither acyclovir nor donepezil treatment can change”. Besides, the “Aβ-induced increase in IL-17 expression compared with the Aβ group” value in the series on IL-17 is on record as “cannot reduce the expression of IL-17”. Moreover, in the series with HSV-1-infected cells, the “inhibition of aberrant tau phosphorylation” value is ~100% and the “reduction of HSV-1-induced Aβ accumulation” value is reported as 70%.
As to `COc1cc2c(cc1OC)C(=O)C(CC1CCN(Cc3ccccc3)CC1)C2` (centres unmarked) [donepezil], the “time to find the hidden platform (latency) compared with the Aβ group” value in the series with Aβ oligomer-treated mice [1] (last day of training, gavage 13 d) is “significantly shorter”. In addition, the “time in the target area compared with the Aβ group” value in the series on Aβ oligomer-treated mice [1] is “significantly longer”. In addition, the “expression of PSD-95 compared with the Aβ group” value with PSD-95 was “does not alter the expression of PSD-95”. In the series on interleukin-6 (IL-6), the “Aβ-induced increase in IL-6 expression compared with the Aβ group” value is given as “does not alter the expression of IL-6”. Further, in [3], the “Aβ-induced increase in the mean OD of GFAP compared with the Aβ group” value is listed as “neither acyclovir nor donepezil treatment can change”. For the same compound, the “body weight compared with the control group” value in [4] is on record as “does not change the body weight”. For the same compound, the “Aβ-induced increase in IL-17 expression compared with the Aβ group” value with IL-17 is reported as “does not alter the expression of IL-17”.

(Values after patent US20230023770A1, “Preparation of Drug for Treating Alzheimer's Disease (AD)” (Plantarx Limited, priority 2019, published 2023).)
